According to patent US8754233B2, “Pyrazolylbenzothiazole derivatives and their use as therapeutic agents” (Dermira (Canada), Inc., priority 2002, dated 2014):

Experiments:
[1] = system: IFNg on ConA 1° splenocytes; assay: Inhibition of IFNγ release from ConA-stimulated splenocytes; type: cell-based, mouse; conditions: ConA-stimulated Balb/c splenocytes, 18-24 hours, ELISA
Method: T-lymphocytes obtained from mice spleens are a suitable sample for studying the activation properties of this immunologically important cell type. T-lymphocytes are the main regulators for inflammation. Concanavalin A (ConA) is an effective activator of T-lymphocytes, which allows T-lymphocytes to proliferate and produce inflammatory cytokines, such as Interferon (IFNγ) and regulatory cytokines, such as Interleukin 10 (IL-10).
The spleens were transferred onto mesh screen containing 10 ml of ice cold RPMI-5 (1× sodium pyruvate and 5% FBS) and gently ground with a pestle. The cell suspensions were centrifuged at 1500 rpm for 6 minutes at 4° C. […] The supernatant was discarded and the pellet washed two additional times. The cells were resuspended in RPMI-5 and the cell suspensions combined. The cells were counted and their concentration was adjusted to 2.8×10^6 cells/ml using RPMI-5.
The working concentration of ConA was […]. A 20× working concentration of Concanavalin A was […] was prepared using RPMI-5. The test compounds, dimethylsulfoxide (DMSO) negative vehicle control and staurosporine positive control were diluted twenty times using RPMI-5. Ten μL each of DMSO and staurosporine were combined with 180 μl of medium containing splenocytes in the wells, and 10 μl of 50 μg/ml ConA was immediately added. Medium without ConA was added to the control wells. […] The plates were incubated at 37° C. in 5% CO2 in humidified conditions overnight (18-24 hours) for INFγ.
At the completion of the stimulation described above, the plates were spun at 2000 rpm for 10 minutes. The supernatants (100 μl) from each well were transferred to fresh plates for INFγ analysis by ELISA.
INFγ levels in the supernatants from stimulated lymphocytes were determined with PharMingen's OptEIA™ INFγ Kit (PharMingen) according to manufacturer's directions. The data, shown in Table 2 infra, is represented as a percentage of INFγ inhibition by the following formula: INFγ inhibition=100−(AVG treatment/AVG DMSO control)*100.

[2] = system: ConA 1° splenocytes; assay: Survival of ConA 1° splenocytes (cytotoxicity by MTS staining); type: cell-based, mouse; conditions: ConA-stimulated splenocytes
[3] = system: macrophages; assay: Survival of macrophages; type: cell-based, mouse; conditions: stimulated primary macrophages
[4] = system: MCP1 on HUVECS; assay: Inhibition of MCP-1 release from TNFα-stimulated HUVEC; type: cell-based, human; conditions: 18-24 hours, ELISA
From the text: The activation of endothelial cells by pro-inflammatory cytokine TNF-α leads to the production of several chemokines. The release of these chemokines play an important role in leukocyte trafficking and extravasation of leukocytes into tissue during inflammation. MCP-1 and IL-8 are among the chemokines released upon stimulation of human endothelial cells (HUVECs) by TNFα, and contribute to migration of monocytes to the sites of inflammation. Cells should not be passaged more than 6 times.
Cells were maintained and grown in tissue culture flasks (T75) in endothelial cell growth medium (EGM, Clonetics) containing 5 additional supplements (EGM-5) in medium [human recombinant endothelial growth factor (hEGF), hydrocortisone (HC), bovine brain extract (BBE), fetal bovine serum (FBS) and Gentamycin (GA)] incubated at 37° C., 5% CO2. The cells should be propagated a maximum of 20 passages.
The plates were incubated overnight at 37° C., 5% CO2 to enable the cells to attach and grow.
The working concentration of TNFα was 1,000 pg/ml. A twenty times working concentration of TNFα was 20,000 pg/ml was prepared using EGM-5. The test compounds, DMSO negative vehicle control and staurosporine positive control were diluted 20× using EGM-5. Ten μL each of the compounds, DMSO and staurosporine were combined with 180 μl of medium containing HUVEC cells. Immediately following the addition of the compounds, 10 μl of […] TNFα was added to the wells. Medium without TNFα was added to the control wells. […] The plates were incubated at 37° C. in 5% CO2 in humidified conditions overnight (18-24 hours) for TNFα.
At the completion of the stimulation, the plates were spun at 2000 rpm for 10 minutes. The supernatants from each well were transferred to fresh plates for MCP1 analysis by ELISA.
[…] were determined with PharMingen's OptEIA™ MCP1 Kit (PharMingen) according to manufacturer's instructions.
The data is represented as a percentage of MCP1 inhibition by the following formula: % MCP1 inhibition=100−(AVG treatment/AVG DMSO control)*100.

IC50 [1]	SMILES	IC50 [2]	IC50 [3]	IC50 [4]
11 µM	COc1cc2sc(-c3c(NCCN(C)C)n[nH]c3N)nc2cc1F [N^3-(2-Dimethylaminoethyl)-4-(5-fluoro-6-methoxybenzothiazole)-1H-pyrazole-3,5-diamine]	> 25 µM	> 25 µM	> 25 µM
6.1 µM	COc1cc2sc(-c3c(N4CCNCC4)n[nH]c3N)nc2cc1F [4-(5-Fluoro-6-methoxybenzothiazole)-5-piperizin-1-yl-2H-pyrazol-3-ylamine]	17.5 µM	> 25 µM	10.9 µM
